The text below walks through data of patent publication US4198512A, “1-Oxo-1,2-dihydroisoquinoline derivatives” (Yamanouchi Pharmaceutical Co., Ltd., priority 1977, dated 1980).

The nature of assay [1]: Whittle's method, writhing (acetic acid). The class given is in vivo, Male ICR-Mice. The conditions noted are these: 50 mg/kg P.O., mice; 0.6% acetic acid i.p.
Description: (§1) Male ICR-Mice (weighting 25-35 g.), one group being 12 mice, fasted overnight were used in this test. The sample was orally administered, and 20 minutes after, 5 ml./Kg. of 0.4% Evance blue was injected intravenously and 10 minutes thereafter, 10 ml./Kg. of 0.6% acetic acid was injected intraperitoneally. The number of writhings after 20 minutes following the administration of acetic acid was recorded and after an additional 10 minutes, the mice were killed by dislocation of the neck, the dye leaked in the abdominal cavity was washed out with 5 ml. of 0.9% saline to make the total amount 10 ml., and thereafter furs, blood corpuscles, etc., intermingled were removed by centrifugal separation at 3,000 r.p.m. for 5 minutes. Furthermore, to prevent turbidity caused by protein, 0.1 ml. of an aqueous 0.1 normal sodium hydroxide was added and then the absorbance at 590 nm was measured. The inhibition ratio of the sample administered rat groups to control groups was calculated.
For assay [2] the following is noted: 50 mg/kg.
Description: as §1
Assay [3] can be described thus: Carrageenin-induced edema. In kind it is in vivo, Male Wister rats. The note with it: oral, 1 h before carrageenin, rat hind paw, 3 h. How it is done: (a) Carrageenin-induced edema
Male Wister rats (weighing 130-170 g.), one group being 6 rats, fasted overnight were used. According to Winter's method [Proc. Soc. Exp. Biol. Med., 111,544 (1962)], 0.1 ml. of 1% carrageenin [Iwai Kagaku Yakuhin K.K. Seakem] suspension in 0.9% saline was injected into the planter tissue of the left hind paw. After 3 hours, each rat was sacrificed by chloroform and the hind paw was cut and weighed immediately. By using the value obtained by subtracting the weight of the untreated hind paw from the weight of the hind paw having injected therein the carrageenin as the weight of edema, the inhibitory ratio of the sample administered rat groups to control groups was calculated. The sample was orally administered before one hour of the injection of Carrageenin.
In addition, the test samples used in the aforesaid tests (a) and (b) were prepared by suspending the test compounds in an aqueous 0.5% methyl cellulose solutions.

With `Cc1c(N(C)C)c(=O)n(-c2ccccc2)n1C` [Aminopyrine, reference compound], the “Inhibition (%) Writhing” value in assay [1] amounted to 58.1%. In addition, the “Inhibition (%) Permeability” value in assay [2] amounted to 41.7%.

`CSc1cc2ccccc2c(=O)n1C` [Ex. 1, 2-methyl-3-methylthio-1-oxo-1,2-dihydroisoquinoline]: the “Inhibition (Carrageenin-induced edema)” value in assay [3] (100 mg/kg) came out at 57.3%.

As for `CCn1c(SC)cc2ccccc2c1=O` [Ex. 2, 2-ethyl-3-methylthio-1-oxo-1,2-dihydroisoquinoline], the “Inhibition (Carrageenin-induced edema)” value in assay [3] (50 mg/kg) is reported as 38.5%.

In the case of `Cn1c([S+](C)[O-])cc2ccccc2c1=O` (centres unmarked) [Ex. 4, 2-methyl-3-methylsulfinyl-1-oxo-1,2-dihydroisoquinoline], the “Inhibition (Carrageenin-induced edema)” value in assay [3] (50 mg/kg) stood at 55.8%; in assay [3] (100 mg/kg) it was 68.2%. Moreover, the “Inhibition (%) Writhing” value in assay [1] came out at 39.7%. For the same compound, the “Inhibition (%) Permeability” value in assay [2] is listed as 42.8%.

For `Cn1c(S(C)(=O)=O)cc2ccccc2c1=O` [Ex. 5, 2-methyl-3-methylsulfonyl-1-oxo-1,2-dihydroisoquinoline], the “Inhibition (Carrageenin-induced edema)” value came to 50.7% in assay [3] (50 mg/kg) and 68.1% in assay [3] (100 mg/kg). Further, the “Inhibition (%) Writhing” value in assay [1] was 45.8%. For the same compound, the “Inhibition (%) Permeability” value in assay [2] amounted to 47.1%.

With `CCCCC1C(=O)N(c2ccccc2)N(c2ccccc2)C1=O` [Phenyl butazone, reference compound], the “Inhibition (Carrageenin-induced edema)” value in assay [3] (50 mg/kg) was 44.5%; in assay [3] (100 mg/kg), 51.2%.
